Data published in the supplement of paper PMC10307832.

Assays:
Assay in all cases: relative viability (nuclei count vs DMSO), 5 days (fraction); higher = more cells survive
[1] = compound: O=C(CCCCCCNC(=O)c1cnc(N(c2ccccc2)c2ccccc2)nc1)NO [Ricolinostat]
Outline: (§1)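 Five library-drug doses, separated by factors of √10, were pinned into 1536-well plates holding lung cancer cell lines after an overnight stay at 37 °C. Cells were fixed, permeabilised and Hoechst-stained in one step after 5 days without medium change, then imaged at 4×. Viability compares treated-well with vehicle-well nuclei, counted in MetaXpress, as a median across plates. Passing plates had control CV below 25% and at least one doubling.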

[2] = compound: CC1=CN2C(=O)C=C(N=C2C(=C1)C(C)NC3=CC=CC=C3)N4CCOCC4 [TGX 221]
Outline: as §1

[3] = compound: C1=CC=C(C(=C1)C2=CC=C(C=C2)C3=CSC4=C3C(=C(C(=O)N4)C#N)O)O
Outline: as §1

[4] = compound: CC1=CN2C(=O)C=C(N=C2C(=C1)C(C)NC3=CC=CC=C3)N4CCOCC4 [TGX 221] + C[C@]1(O)C[C@@H](c2nc(-c3ccc4ccc(-c5ccccc5)nc4c3)c3c(N)nccn32)C1 [Linsitinib] (partner 1 µM)
Outline: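 Five library-drug doses in √10 steps were combined with a fixed anchor-drug dose, or a single drug was given alone, by pin tool to lung cancer cell lines in 1536-well plates the day after seeding. Nuclei were stained and counted after 5 days. Relative viability is the nuclei count in treated wells over that in vehicle wells, taken as the median of duplicate plates.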

With NCI-H1792 the relative viability ([1]; 0.08 µM) was 0.599, the relative viability ([1]; 0.253 µM) was 0.938 and the relative viability ([1]; 0.8 µM) was 0.754. It also gave a relative viability ([1]; 2.53 µM) of 0.57, a relative viability ([2]; 0.08 µM) of 0.749 and a relative viability ([2]; 0.253 µM) of 0.878. For the same cell line, the relative viability ([2]; 0.8 µM) was 1, the relative viability ([2]; 2.53 µM) was 0.883 and the relative viability ([2]; 8 µM) was 0.864. For the same cell line, the relative viability ([3]; 0.253 µM) was 1.01, the relative viability ([3]; 0.8 µM) was 0.723 and the relative viability ([3]; 2.53 µM) was 0.921. The relative viability ([3]; 8 µM) was 0.446, the relative viability ([4]; first compound 0.08 µM) was 0.501 and the relative viability ([4]; first compound 0.253 µM) was 0.553. The relative viability ([4]; first compound 0.8 µM) was 0.361, the relative viability ([4]; first compound 2.53 µM) was 0.435 and the relative viability ([4]; first compound 8 µM) was 0.326.
